Laboratory results as given in patent US6964958B2, “Method of simultaneously treating sensory auditory gating deficit and associated psychosis in schizophrenia and bipolar disorder patients with mania” (priority 2001, dated 2005).

Experiments:
wild-type mice (WTM) = assay: Prepulse inhibition of startle (PPI) in wild-type mice; format: in vivo, mouse; conditions: subcutaneous, 115 db startle, 75 or 80 db prepulse
Source text: (§1) The startle apparatus (SR-Lab, San Diego Instruments) consisted of a Plexiglas cylinder resting on a Plexiglas frame within a ventilated soundproof enclosure. Acoustic noise bursts were presented by. speaker 24 cm above the animal. and a piezo-electric device transduced any consequent motion (flinch) within the cylinder. Two stimulus trial types 1) 115 db startle stimulus only; or 2) 115 db stimulus preceded by a 75 or 80 db prepulse 100 msec before startle simulut onset were randomly presented with a mean intertrial interval of 20 sec. Stimuli were 30 msec in duration and were presented over a constant 65 db white noise background also present during a 5-min adaptation period.
(§2) Mean peak amplitude of the flinch response within a 200 msec window following presentation of the 115 db stimulus was calculated separately for each type of startle trial. Ratios reflecting the amount of inhibition due to the prepulse were calculated by dividing the difference between mean amplitude for startle and prepulse trials by the mean for the startle trials. PPI data are commonly presented in this ratio form to control for overall level of the startle reflex itself.
Imidazenil or alprazolam was dissolved in DMSO, combined with oil, and injected subcutaneously at a volume of 0.1 ml/10 gm of body weight. The amount of DMSO was approximately 1% of total volume. […]

[1] = test system: heterozygous reeler mice (HRM); assay: Prepulse inhibition of startle (PPI) in heterozygous reeler mice; format: in vivo, mouse; conditions: for auditory PPI deficit in HRM: heterozygous reeler mice, subcutaneous, imidazenil 0.3, 0.6 mg/kg, 115 db startle, 75 or 80 db prepulse
Source text: as §1, §2
Imidazenil or alprazolam was dissolved in DMSO, combined with oil, and injected subcutaneously at a volume of 0.1 ml/10 gm of body weight. The amount of DMSO was approximately 1% of total volume. Vehicle was prepared similarly and vehicle or drug was administered in counterbalanced order using a within-subject design. Following drug administration, the mouse was placed in an isolated cage for 10-15 min before being placed in the startle apparatus. Animals were tested between 11:00 hr and 15:00 hr.

[2] = FIG. 1 dose-response comparison; cited from earlier work
[3] = in nonhuman primates; cited from earlier work
[4] = test system: benzodiazepines binding sites; conditions: cited from earlier work
rats = conditions: doses up to 60-fold greater than doses producing anxiolytic and anticonvulsant actions; cited from earlier work
patas monkeys = conditions: cited from earlier work
GABAA receptors = conditions: cited from earlier work

| Compound | PPI of WTM (wild-type mice (WTM)) | auditory PPI deficit in HRM [1] | sedation, amnesia, tolerance and dependence liability relative to doses with anxiolytic and anticonvulsant (therapeutic) actions [2] | T 1/2 (clearance rate) [3] [h] | affinity for benzodiazepines binding sites [4] | overall startle level (sedative effect) ([1]; doses of imidazenil (0.3, 0.6 mg/kg) that correct the PPI deficit in HRM) | antagonism of sedative and amnestic actions of alprazolam (rats) | antagonism of sedative and amnestic actions of alprazolam (patas monkeys; monkeys, doses up to 60-fold greater than doses producing anxiolytic and anticonvulsant actions) | tolerance to the effects during treatment (patas monkeys; patas monkeys, seventeen day treatment) | action on GABAA alpha1 subunit (GABAA receptors; GABAA receptors containing alpha1 subunit) | efficacy at GABAA receptor subtypes (GABAA receptors; at least eight subtypes of GABAA receptors tested) | intensity of GABA-gated Cl- currents (GABAA receptors) |
| --- | --- | --- | --- | --- | --- | --- | --- | --- | --- | --- | --- | --- |
| Cc1nnc2n1-c1ccc(Cl)cc1C(c1ccccc1)=NC2 [alprazolam, 8chloro-1-methyl-6-phenyl-4-[1,2,4]triazolo[4,3a][1-4]benzodiazepine, reference compound] | decreased PPI in WTM | failed to revert the PPI deficit in HRM | appear with doses that are very close to those that cause anxiolytic and anticonvulsant actions |  |  |  |  |  |  |  |  |  |
| NC(=O)c1ncn2c1CN=C(c1ccccc1Br)c1cc(F)ccc1-2 [imidazenil, 6-(2 bromophenyl)-8-fluoro-4H-imidazo[1,5a][1,4]benzodiazepine-3-carboxamide] | no primary effects on the PPI of WTM | corrected the auditory PPI deficit in HRM | virtually undetectable | > 6 | high affinity | fail to change the overall startle level | antagonizes the sedative and amnestic actions of alprazolam | antagonizes the sedative and amnestic actions of alprazolam | no tolerance | does not act on GABAA α1 subunit | partial agonist | never maximizes the intensity of GABA-gated Cl^− currents |
